Experiment in all cases: relative viability (nuclei count vs DMSO), 5 days (fraction); higher = more cells survive
Compound in the assay “Axitinib + Pemetrexed”: CNC(=O)c1ccccc1Sc1ccc2c(/C=C/c3ccccn3)n[nH]c2c1 [Axitinib] + Nc1nc2[nH]cc(CCc3ccc(C(=O)N[C@@H](CCC(=O)O)C(=O)O)cc3)c2c(=O)[nH]1 [Pemetrexed] (partner 0.2 µM)
An outline of the steps:
(§1)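 Relative viability equals treated-well nuclei counts divided by vehicle-well nuclei counts. Counts came from 4× images of lung cancer cell lines grown in 1536-well plates for 5 days after pin-tool dosing on the day after seeding. Dosing used one drug alone or a fixed anchor-drug dose plus five library-drug doses (not always all listed) in √10 steps, and values are medians of duplicate plates.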

Compound in the assay “Bemcentinib + OSI-027”: Nc1nc(Nc2ccc3c(c2)CC[C@@H](N2CCCC2)CC3)nn1-c1cc2c(nn1)-c1ccccc1CCC2 [Bemcentinib] + COc1cccc2cc(-c3nc([C@H]4CC[C@H](C(=O)O)CC4)n4ncnc(N)c34)[nH]c12 [OSI-027] (partner 0.5 µM)
The gist of the method:
as §1

Compound in assay [1]: CC1=CC=C(C=C1)C(=O)CN2C3=C(CCCC3)SC2=N [Pifithrin_alpha] + CC(C)C[C@H](NC(=O)[C@H](Cc1ccccc1)NC(=O)c1cnccn1)B(O)O [Bortezomib] (partner 0.002 µM)
The gist of the method: as §1

Compound in assay [2]: CC1=CC=C(C=C1)C(=O)CN2C3=C(CCCC3)SC2=N [Pifithrin_alpha] + C[C@]1(O)C[C@@H](c2nc(-c3ccc4ccc(-c5ccccc5)nc4c3)c3c(N)nccn32)C1 [Linsitinib] (partner 1 µM)
An outline of the steps: as §1

As for NCI-H522, the relative viability worked out at 1.22 with Axitinib + Pemetrexed (first compound 0.005 µM); 1.14 in the assay with Axitinib + Pemetrexed (first compound 0.01581 µM); 1.07 with Axitinib + Pemetrexed (first compound 0.05 µM); 1.07 in the assay with Axitinib + Pemetrexed (first compound 0.1581 µM); 0.944 in the assay with Axitinib + Pemetrexed (first compound 0.5 µM); 0.714 with Bemcentinib + OSI-027 (first compound 0.04 µM). In addition, the relative viability was 0.548 in the assay with Bemcentinib + OSI-027 (first compound 0.1265 µM), 0.614 in the assay with Bemcentinib + OSI-027 (first compound 0.4 µM), 0.656 with Bemcentinib + OSI-027 (first compound 1.265 µM) and 0.728 with Bemcentinib + OSI-027 (first compound 4 µM).

Regarding NCI-H727, the relative viability in assay [1] (first compound 1 µM) came to 0.786; in assay [1] (first compound 3.162 µM) it was 0.958; in assay [1] (first compound 10 µM), 0.696; in assay [1] (first compound 31.62 µM) it was 0.446; in assay [1] (first compound 100 µM) it was 0.793; in assay [2] (first compound 1 µM), 0.295. Further, the relative viability in assay [2] (first compound 3.162 µM) turned out to be 0.312; in assay [2] (first compound 10 µM) it was 0.271; in assay [2] (first compound 31.62 µM), 0.293; in assay [2] (first compound 100 µM) it was 0.217; in the assay with Bemcentinib + OSI-027 (first compound 0.04 µM) it was 0.552; with Bemcentinib + OSI-027 (first compound 0.1265 µM) it was 0.631. Moreover, the relative viability was 0.645 with Bemcentinib + OSI-027 (first compound 0.4 µM), 0.592 in the assay with Bemcentinib + OSI-027 (first compound 1.265 µM) and 0.576 in the assay with Bemcentinib + OSI-027 (first compound 4 µM).

Take NCI-H1299: the relative viability in assay [1] (first compound 1 µM) is 1.08; in assay [1] (first compound 3.162 µM), 1.02; in assay [1] (first compound 10 µM), 1.02; in assay [1] (first compound 31.62 µM), 0.896; in assay [1] (first compound 100 µM), 1.03; in assay [2] (first compound 1 µM), 1.04. Further, the relative viability amounted to 1.09 in assay [2] (first compound 3.162 µM), 1.01 in assay [2] (first compound 10 µM), 0.813 in assay [2] (first compound 31.62 µM) and 0.998 in assay [2] (first compound 100 µM).

For the cell line NCI-H1395, the relative viability worked out at 0.962 with Axitinib + Pemetrexed (first compound 0.005 µM); 0.761 in the assay with Axitinib + Pemetrexed (first compound 0.01581 µM); 0.832 with Axitinib + Pemetrexed (first compound 0.05 µM); 0.683 with Axitinib + Pemetrexed (first compound 0.1581 µM); 0.736 in the assay with Axitinib + Pemetrexed (first compound 0.5 µM); 1.05 in assay [2] (first compound 3.162 µM). The relative viability came to 1.03 in assay [2] (first compound 10 µM); 0.638 in assay [2] (first compound 31.62 µM); 0.974 in assay [2] (first compound 100 µM); 0.654 with Bemcentinib + OSI-027 (first compound 0.04 µM); 0.74 with Bemcentinib + OSI-027 (first compound 0.1265 µM); 0.616 with Bemcentinib + OSI-027 (first compound 0.4 µM). Moreover, the relative viability with Bemcentinib + OSI-027 (first compound 1.265 µM) was 0.613; in the assay with Bemcentinib + OSI-027 (first compound 4 µM), 0.594.

Consider NCI-H1623, for which the relative viability in the assay with Bemcentinib + OSI-027 (first compound 0.04 µM) is 0.401; with Bemcentinib + OSI-027 (first compound 0.1265 µM), 0.418; with Bemcentinib + OSI-027 (first compound 0.4 µM), 0.424; with Bemcentinib + OSI-027 (first compound 1.265 µM), 0.45; with Bemcentinib + OSI-027 (first compound 4 µM) it was 0.502.

Take NCI-H1648: the relative viability in the assay with Axitinib + Pemetrexed (first compound 0.005 µM) is 0.726; with Axitinib + Pemetrexed (first compound 0.01581 µM), 0.764; in the assay with Axitinib + Pemetrexed (first compound 0.05 µM), 0.702; with Axitinib + Pemetrexed (first compound 0.1581 µM), 0.958; with Axitinib + Pemetrexed (first compound 0.5 µM) it was 0.758; in the assay with Bemcentinib + OSI-027 (first compound 0.04 µM), 0.245. The relative viability with Bemcentinib + OSI-027 (first compound 0.1265 µM) stood at 0.271; in the assay with Bemcentinib + OSI-027 (first compound 0.4 µM), 0.275; with Bemcentinib + OSI-027 (first compound 1.265 µM) it was 0.245; with Bemcentinib + OSI-027 (first compound 4 µM), 0.283.

As for NCI-H1650, the relative viability in the assay with Axitinib + Pemetrexed (first compound 0.005 µM) was 0.415; with Axitinib + Pemetrexed (first compound 0.01581 µM) it was 0.352; in the assay with Axitinib + Pemetrexed (first compound 0.05 µM) it was 0.361; with Axitinib + Pemetrexed (first compound 0.1581 µM), 0.436; with Axitinib + Pemetrexed (first compound 0.5 µM) it was 0.408; in assay [1] (first compound 1 µM), 0.182. Besides, the relative viability in assay [1] (first compound 3.162 µM) turned out to be 0.202; in assay [1] (first compound 10 µM) it was 0.18; in assay [1] (first compound 31.62 µM), 0.189; in assay [1] (first compound 100 µM), 0.169; with Bemcentinib + OSI-027 (first compound 0.04 µM), 0.59; with Bemcentinib + OSI-027 (first compound 0.1265 µM), 0.913. Moreover, the relative viability is 0.624 with Bemcentinib + OSI-027 (first compound 0.4 µM), 0.72 with Bemcentinib + OSI-027 (first compound 1.265 µM) and 0.724 with Bemcentinib + OSI-027 (first compound 4 µM).

Source of the values: the supplement of paper PMC10307832.
